The results in this text go back to patent US20200129513A1, “COMPOSITIONS AND METHODS FOR TREATING HEMATOLOGIC MALIGNANCIES” (UNIVERSITY OF ROCHESTER, priority 2018, published 2020).

For test [1], the system named is primary AML suspension cells. As to the kind of experiment: AML cell viability, Cell Titer-Glo 2.0 Assay. The test is classed as cell-based, human. Particulars: two different AML patient samples, 30 hours culture, Cell Titer-Glo 2.0, FIG. 6, read-out: IC50, reduction of AML cell viability. The procedure:
To test this, primary AML suspension cells were treated in vitro with afatinib. Cell viability was measured by Cell Titer-Glo 2.0 Assay (Promega) in triplicate for each concentration. Two different AML patient cells (1×10^5 cells/100 μL media) were cultured for 30 hours in clear 96-well flat bottom tissue culture plates (Costar, Corning) with serial drug dilutions (100 μM afatinib (LC Laboratories) serially diluted 3-fold ending at ˜0.01 μM). Media is RPMI1640 (Cellgro, Corning) supplemented with penicillin, streptomycin, L-glutamine (Gibco, ThermoFisher Scientific), and 10% heat-inactivated fetal bovine serum (Sigma-Aldrich). After cell culture, viability was assayed according to manufacturer's directions. Luminescence was measured on a BioTek Synergy2 96-well plate reader (BioTek Instruments). Data was analysed using Prism6 software (GraphPad Software) and dose curve was generated using 4PL fit.

For test [2], the system named is CLL patient cells. As to the kind of experiment: CLL cell viability, Cell Titer-Glo 2.0 Assay. The test is classed as cell-based, human. Particulars: for IC50: Homo sapiens, CLL patient cells, 48 hours culture. The procedure:
After cell culture, viability was assayed according to manufacturer's directions. Luminescence was measured on a BioTek Synergy2 96-well plate reader (BioTek Instruments). Data was analysed using Prism6 software (GraphPad Software) and dose curve was generated using 4PL fit.
Cell viability was measured by Cell Titer-Glo 2.0 Assay (Promega) in triplicate for each concentration. […] After cell culture, viability was assayed according to manufacturer's directions. Luminescence was measured on a BioTek Synergy2 96-well plate reader (BioTek Instruments). Data was analysed using Prism6 software (GraphPad Software) and dose curve was generated using 4PL fit.

Test [3] relates to CLL patient cells. As to the kind of experiment: CLL cell viability, Cell Titer-Blue Cell Viability Assay. It counts as cell-based. As to conditions: Homo sapiens, 48 hours culture, FIG. 1, read-out: IC50, reduction of CLL cell viability. The text has this: The common off-target with the best binding was ERRB2 in the EGFR family of receptors. Afatinib (an irreversible inhibitor that covalently binds to the EGFR family of receptors (including ERBB2) active tyrosine kinase domain ATP-binding site, a similar mechanism to that of the BTK inhibitors) was chosen as an example EGFR family inhibitor to test this hypothesis. […] Media is RPMI1640 (Cellgro, Corning) supplemented with penicillin, streptomycin, L-glutamine (Gibco, ThermoFisher Scientific, Waltham, Mass.), and 10% heat-inactivated fetal bovine serum (Sigma-Aldrich, St. Louis, Mo.). After cell culture, viability was measured by Cell Titer-Blue Cell Viability Assay (Promega, Madison, Wis.) according to manufacturer's directions. Non-viable cells produce less fluorescence. Measurements were done in triplicate for each concentration. Fluorescence was measured on a BioTek Synergy2 96-well plate reader (BioTek Instruments, Winooski, Vt.). Data was analysed using Prism6 software (GraphPad Software, La Jolla, Calif.) and dose curve was generated using 4PL fit. Afatinib reduces CLL cell viability in a dose dependent manner (IC50 0.4 μM) as shown in FIG. 1 (all data points shown).

Test [4] has as its system CA46 cell line. As to the kind of experiment: NHL p53 mutated cell line viability, Cell Titer-Glo 2.0 Assay. It counts as cell-based. As to conditions: Homo sapiens; CA46 (BL-derived, p.R248Q p53), 54 hours culture, Cell Titer-Glo 2.0, FIG. 9; read-out: IC50, reduction of cell viability of p53 mutated NHL cell line. The procedure:
Luminescence was measured on a BioTek Synergy2 96-well plate reader (BioTek Instruments). Data was analysed using Prism6 software (GraphPad Software) and dose curve was generated using 4PL fit.

The test system of test [5] is AML patient cells. As to the kind of experiment: AML cell death, CellTox Green Cytotoxicity Assay. The test is classed as cell-based. As to conditions: Homo sapiens, one AML patient sample, 30 hours culture, FIG. 7, read-out: IC50, induction of AML cell death.
Test [6] has as its system CLL patient cells. As to the kind of experiment: CLL cell death, CellTox Green Cytotoxicity Assay. The test is classed as cell-based. As to conditions: Homo sapiens, 48 hours culture, FIG. 3, read-out: IC50, induction of CLL cell death. The text has this: The common off-target with the best binding was ERRB2 in the EGFR family of receptors. Afatinib (an irreversible inhibitor that covalently binds to the EGFR family of receptors (including ERBB2) active tyrosine kinase domain ATP-binding site, a similar mechanism to that of the BTK inhibitors) was chosen as an example EGFR family inhibitor to test this hypothesis. […] Media is RPMI1640 (Cellgro, Corning) supplemented with penicillin, streptomycin, L-glutamine (Gibco, ThermoFisher Scientific, Waltham, Mass.), and 10% heat-inactivated fetal bovine serum (Sigma-Aldrich, St. Louis, Mo.). After cell culture, viability was measured by Cell Titer-Blue Cell Viability Assay (Promega, Madison, Wis.) according to manufacturer's directions. Non-viable cells produce less fluorescence. Measurements were done in triplicate for each concentration. Fluorescence was measured on a BioTek Synergy2 96-well plate reader (BioTek Instruments, Winooski, Vt.). Data was analysed using Prism6 software (GraphPad Software, La Jolla, Calif.) and dose curve was generated using 4PL fit. […] To test that an EGFR family inhibitor not only reduces CLL cell viability, but also induces cell death in vitro, cytotoxicity was measured by CellTox Green Cytotoxicity Assay (Promega). Dead cells produce more fluorescence in this assay. […] Fluorescence was measured on a BioTek Synergy2 96-well plate reader (BioTek Instruments). […]

The test system of test [7] is CA46 cell line. As to the kind of experiment: NHL p53 mutated cell line death, CellTox Green Cytotoxicity Assay. It counts as cell-based. As to conditions: Homo sapiens, CA46, 54 hours culture, FIG. 10, read-out: IC50, induction of cell death of p53 mutated NHL cell line.

SMILES strings stand for the structures. Where two headings read alike, the source gives them in different places.

As to `CN(C)C/C=C/C(=O)Nc1cc2c(Nc3ccc(F)c(Cl)c3)ncnc2cc1O[C@H]1CCOC1` [Afatinib], the IC50 came out at 2100 nM in test [1] (Homo sapiens, 30 h); 2600 nM in test [1]; 500 nM in test [2] (read-out: IC50, reduction of CLL cell viability (afatinib vs ibrutinib comparison), Cell Titer-Glo 2.0, FIG. 4); 300 nM in test [2] (Cell Titer-Glo 2.0, FIG. 2, read-out: IC50, reduction of CLL cell viability); 400 nM in test [3]; 3000 nM in test [4]. For the same compound, the IC50 in test [5] stood at 19000 nM; in test [6] it was 12000 nM; in test [7], 22000 nM. Besides, in test [2] (ratio of IC50 values, FIG. 4), the “fold lower concentration than ibrutinib for reduction of CLL cell viability” value came to 20 fold.
